These results are taken from US10759814B2, “Pharmaceutical compositions containing substituted polycyclic pyridone derivatives and prodrug thereof” (priority 2016, dated 2020).

Where two headings read alike, the source gives them in different places.

Series [1] in a line: Metabolism stability test. The series is classed as in vitro ADME, human. As to conditions: 2 μmol/L of test compound; 37° C., 30 minutes. The procedure: Test Example 5: Metabolism Stability Test
A reaction was performed (oxidative reaction) at 37° C. for 0 minute or 30 minutes in the presence of 1 mmol/L NADPH in 0.2 mL of a buffer (50 mmol/L Tris-HCl pH 7.4, 150 mmol/L potassium chloride, 10 mmol/L magnesium chloride) containing 0.5 mg protein/mL of human liver microsomes. After the reaction, 50 μL of the reaction solution was added to 100 μL of a methanol/acetonitrile=1/1 (v/v), mixed and centrifuged at 3000 rpm for 15 minutes. The compound used in the present invention in the supernatant was quantified by LC/MS/MS or Solid Phase Extraction (SPE)/MS, and a remaining amount of the compound used in the present invention after the reaction was calculated, letting a compound amount at 0 minute reaction time to be 100%. Hydrolysis reaction was performed in the absence of NADPH and glucuronidation reaction was in the presence of 5 mM UDP-glucuronic acid in place of NADPH, followed by similar operations.

Another series concerns red blood cells. Briefly: Light hemolysis test. The series is classed as cell-based, sheep. As to conditions: UV-irradiation 290 to 400 nm; 0.0008 to 0.1 w/v %. How it is done:
Test Example 12: Light Hemolysis Test
The compound used in the present invention was dissolved at target concentrations and was mixed with a 2.5 v/v % suspension of red blood cells prepared from a defibrinated blood of sheep on a microplate at concentrations of 0.0008 to 0.1 w/v %. The mixtures were exposed to […] of UV-irradiation within a range of wavelength 290 to 400 nm, UVA and UVB using ultra violet fluorescent lamps, GL20SE and FL20S-BLB lamps manufactured by Sankyo Denki Co., Ltd. and Panasonic Corporation, respectively. After the completion of the irradiation, the mixtures were centrifuged, and a supernatant of the mixture was collected and was located on a microplate. The phototoxicity was assessed by measuring an absorbance at wavelength of 540 nm and 630 nm in the supernatant. The absorbance data at wavelength of 540 nm and 630 nm were used as indicators of biomembrane damage (photohemolysis %) and hyperoxidation of lipid membrane (methemoglobin formation), respectively. The criteria of phototoxicity was as follows; It was judged to be non-phototoxic (−) when the photohemolysis %<10 and the maximal change in the absorbance at 630 nm (ΔOD)<0.05 were observed. It was judged to be […] when the photohemolysis was more than 10% and the maximal change in the absorbance at 630 nm (ΔOD) was more than 0.05.

The next series deals with influenza virus. The series is classed as in vivo, human. Conditions: 20 to <65 years old.
The format of series [2] is in vivo, human. As to conditions: Compound II-6 single 40 or 80 mg; Oseltamivir 75 mg twice a day for 5 days. The source says:
(4) Incidence of side effects
(4) Incidence of Side Effects
The number of side-effect episodes and the number of patients with side effect were counted for each administration group.

On to `O=C1c2c(O)c(=O)ccn2N([C@@H]2c3ccccc3SCc3c2ccc(F)c3F)[C@@H]2COCCN12` [III-2], for which the “remaining rate after reaction with human liver microsomes (printed: % inhibition)” value in series [1] came out at 90.1%. In the series with red blood cells, the phototoxicity result was “(−) (It was judged to be non-phototoxic (−) when the photohemolysis %<10 and the maximal change in the absorbance at 630 nm (ΔOD)<0.05 were observed)”.

With `CCOC(=O)C1=C[C@@H](OC(CC)CC)[C@H](NC(C)=O)[C@@H](N)C1` [Oseltamivir, reference compound], the “Amount of change in virus titer from baseline, mean” value in the series with influenza virus (Day 2 (24 hours later)) was −2.51 log10 [TCID50/mL]; in the series on influenza virus (Day 3 (48 hours later)), −4.20 log10 [TCID50/mL]; in the series on influenza virus (Day 4 (72 hours later)) it was −4.63 log10 [TCID50/mL]; in the series with influenza virus (Day 5 (96 hours later)), −4.98 log10 [TCID50/mL]; with influenza virus (Day 6 (120 hours later)) it was −4.85 log10 [TCID50/mL]; with influenza virus (Day 9 (192 hours later)), −5.22 log10 [TCID50/mL]. In addition, the “Proportion of patients having a positive influenza virus titer” value in the series on influenza virus (Day 2 (24 hours later)) is recorded as 91.0%; with influenza virus (Day 3 (48 hours later)), 57.3%; in the series on influenza virus (Day 4 (72 hours later)), 27.6%; in the series with influenza virus (Day 5 (96 hours later)) it was 20.9%; in the series with influenza virus (Day 6 (120 hours later)) it was 9.0%; in the series on influenza virus (Day 9 (192 hours later)), 3.2%. Further, the “Incidence of adverse events the causal relationship of which cannot be denied (patients)” value in series [2] was determined as 8.4%.
